In PubChem BioAssay (NCI):
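The compound was tested at five concentrations on cells cultured in 96-well plates, with a 48-hour exposure period. At the GI50, growth is halved. At the TGI there is no net growth.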

Assays:
Test in all cases: growth of human tumour cells (NCI), 48 h
[1] = tested on: NCI-H23 lung
[2] = tested on: NCI/ADR-RES ovarian
[3] = tested on: A498 renal
[4] = tested on: SK-MEL-28 melanoma
[5] = tested on: T-47D breast
[6] = tested on: NCI-H522 lung
[7] = tested on: SF-539 CNS
[8] = tested on: MDA-MB-435
[9] = tested on: UACC-62 melanoma
[10] = tested on: MALME-3M melanoma

SMILES | GI50 [1] [µM] | TGI [1] [µM] | GI50 [2] [µM] | TGI [2] [µM] | GI50 [3] [µM] | TGI [3] [µM] | GI50 [4] [µM] | TGI [4] [µM] | GI50 [5] [µM] | TGI [5] [µM] | GI50 [6] [µM] | TGI [6] [µM] | GI50 [7] [µM] | TGI [7] [µM] | GI50 [8] [µM] | TGI [8] [µM] | GI50 [9] [µM] | TGI [9] [µM] | GI50 [10] [µM] | TGI [10] [µM]
CCC(c1ccc(OC)cc1)C(CC)c1ccc(O)c(CN2CCN(C)CC2)c1 (centres undefined) | 6.37 | 20.6 | 5.51 | 20.6 | 4.13 | 16.1 | 2.16 | 4.23 | 2.57 | 8.35 | 4.74 | 17 | 2.66 | 7.98 | 2.72 | 9.4 | 1.99 | 4.16 |  | 
O=C(CN1CCN(c2cc3c(cc2F)c(=O)c(C(=O)O)cn3C2CC2)CC1)Nc1nc(-c2ccc(Cl)cc2)cs1 | 3.1 | > 100 | 5.62 | > 100 |  |  | 3.02 | 45.8 | 3.58 | > 100 | 3.15 | 30.4 | 3.93 | > 100 | 3.85 | 94 | 3.66 | > 100 | 3.19 | 11.1
Cc1cn(C2C=CC(CO)O2)c(=O)[nH]c1=O (centres undefined) |  | > 1000 |  | > 1000 |  |  |  |  |  | > 1000 |  | > 1000 |  | > 1000 |  | > 1000 |  | > 1000 |  | > 1000
COC(=O)C(=CNC(N)=O)C(=O)OC |  | > 100 |  | > 100 |  |  |  | > 100 |  | > 100 |  | > 100 |  | > 100 |  | > 100 |  | > 100 |  | 
Clc1ccc(-c2csc(Nc3cccc(-c4csc(-c5ccccc5)n4)c3)n2)cc1 | 11.4 | 26.2 | 13 | 24.2 | 15.9 | 28.3 | 5.93 | 15.6 |  |  | 10.2 | 23.5 |  |  | 9.05 | 21.6 | 6.24 | 13.6 |  | 
O=C(O)C1CCCCC1c1c2ccc(=O)c(O)c-2oc2c(O)c(O)ccc12 (centres undefined) |  |  |  |  |  | > 100 |  | > 100 |  | > 100 |  | 67 |  |  |  | 44.5 |  | > 100 |  | > 100
COc1ccc(S(=O)(=O)NC2=NCCN2C(=S)SN2CCn3c2nsc3=S)cc1 | 22.9 | 55.7 | 32.5 | > 100 | 19.9 | 51.1 | 21.1 | 65.1 | 18.3 | 49.1 | 9.62 | 35 |  |  | 14.8 | 43.9 | 12.2 | 27.4 | 9.1 | 24.9
O=[N+]([O-])c1ccc(C2CC(c3ccccc3Cl)=Nc3ccccc3S2=O)cc1 (centres undefined) |  | 11.7 |  |  |  | 6.03 |  | 13.8 |  | 44.2 |  | 3.28 |  | 15.9 |  |  |  | 6.73 |  | 32
COc1cc2c(cc1OC)C(Sc1ccc(SC)cc1)c1c(nc(N)c(C#N)c1N)O2 (centres undefined) | 1.78 | 3.55 |  |  | 1.61 | 3.28 | 1.72 | 3.22 | 1.62 | 4.26 | 1.64 | 3.03 | 1.55 | 2.88 | 1.75 | 3.23 | 1.23 | 2.51 | 1.85 | 3.35
Oc1ccc(O)c(-c2cc(-c3ccc(Cl)cc3)nn2-c2ccccc2)c1 | 2.48 | 9.24 |  | 25.3 | 0.755 | 13.8 |  |  |  |  | 2.4 | 5.44 | 31 | 52.5 | 14.9 | 32.1 | 2.63 | 7.88 |  | 
Nc1cc(O)ccc1N=Nc1ccc(-c2nc3ccccc3[nH]2)cc1 |  |  | > 100 | > 100 |  |  | 34.8 | > 100 | 29.9 | > 100 | 34.2 | > 100 |  |  | 17.1 | 73.5 | 17.1 | > 100 |  | 
COc1ccccc1C1=C(Nc2ccccc2)C(=O)NC1=O |  |  | > 25 | > 25 | > 25 | > 25 | > 25 | > 25 | > 25 | > 25 | > 25 | > 25 | > 25 | > 25 | > 25 | > 25 | > 25 | > 25 | > 25 | > 25
Cc1cccc(C(C)C)c1N1C(=O)C(=O)C(c2nc3ccccc3o2)C(=O)C1=O |  | > 100 |  |  |  | > 100 |  | > 100 |  |  |  | 89.5 |  | > 100 |  |  |  | > 100 |  | > 100
CN(C)c1ccc(/C=C/c2ccc(/C=C/c3ccc(N(C)C)cc3)cc2)cc1 |  | > 100 |  |  |  | > 100 |  | > 100 |  |  |  | > 100 |  | > 100 |  |  |  | > 100 |  | > 100
CCCCC(C)C(OC(=O)CC(CC(=O)O)C(=O)O)C(CC(C)CC(O)CCCCC(O)CC(O)C(C)N)OC(=O)CC(CC(=O)O)C(=O)O (centres undefined) |  | > 100 |  |  |  | > 100 |  | > 100 |  |  |  | > 100 |  | > 100 |  |  |  | > 100 |  | > 100
O=C(CC1(O)C(=O)Nc2ccc(Br)cc21)c1ccc(Cl)cc1Cl (centres undefined) |  | > 100 |  |  |  | > 100 |  | > 100 |  |  |  | 70.5 |  | > 100 |  |  |  | 33.7 |  | > 100
COc1cccc(-c2ccc3c(c2)C2CCN(Cc4ccccc4)C3C2)c1 (centres undefined) |  |  | 8.94 | 32.5 | 3.77 | 17.6 | 13.4 | 65.9 | 5.19 | 38.5 | 4.54 | 20.4 | 10.3 | 23 | 2.43 | 7.29 | 8.48 | 22 | 13.4 | 30.4
CC(=O)N1N=C(c2ccc(Nc3ccnc4cc(Cl)ccc34)cc2)CC1c1ccc(Cl)cc1 (centres undefined) | > 100 | > 100 | 3.04 | > 100 | > 100 | > 100 | 4.88 | > 100 | 1.57 | > 100 | 5.05 | > 100 | > 100 | > 100 | 0.566 | > 100 | 2.95 | > 100 |  | 
